Measured values from patent US4355040A, “Hypotensive imidazole-5-acetic acid derivatives” (Takeda Chemical Industries, Ltd., priority 1979, dated 1982).
Read-outs that look alike come from different tables or passages of the source.

Assays:
[1] = test system: angiotensin II-induced elevation of blood pressure; assay: Inhibitory activity against angiotensin II-induced elevation of blood pressure in rats; format: in vivo, Male SD rats; details: for inhibition in vivo at 0.03 mg/kg / inhibition in vivo at 3 mg/kg / inhibition in vivo at 0.5 mg/kg / inhibition in vivo at 0.1 mg/kg / inhibition in vivo at 0.3 mg/kg: Rattus norvegicus, iv, A II 20 ng/kg/min; for inhibition in vivo at 0.03 mg/kg: 0.03 mg/kg intravenously; for inhibition in vivo at 3 mg/kg: 3.0 mg/kg intravenously; for inhibition in vivo at 0.5 mg/kg: 0.5 mg/kg intravenously; for inhibition in vivo at 0.1 mg/kg: 0.1 mg/kg intravenously; for inhibition in vivo at 0.3 mg/kg: 0.3 mg/kg intravenously
[2] = test system: angiotensin II (aortic blood vessel of rabbits); assay: Antagonistic effect on angiotensin II (A II)-induced tension, aortic blood vessel of rabbits; format: cell-based; details: Oryctolagus cuniculus, 0.25 h, A II 4×10^-9 M, 15 minutes
From the text: Antagonistic effect of the compound (I) of the present invention on angiotensin II (hereinafter referred to briefly as "A II") (with aortic blood vessel of rabbits)
The blood-vessel preparation and reaction were done in accordance with the method as described in "European Journal of Pharmacology", 18, 316 (1972). […] [formula] where; T1 =Change in isometric tension of the blood vessel brought about by A II without a test drug substance (g)

[3] = 10 min, 10 min, read-out: Inhibition (%), after 10 min.
[4] = 0.5 h, 30 min, read-out: Inhibition (%), after 30 min.
[5] = 1.5 h, 90 min, read-out: Inhibition (%), after 90 min.

CCCCOc1ccc(Cn2c(-c3ccccc3)nc(Cl)c2CC(=O)O)cc1 [drawing 136]
inhibition in vivo at 0.03 mg/kg [1, 3]: 17% | inhibition in vivo at 3 mg/kg [1, 3]: 20% | inhibition in vivo at 0.03 mg/kg [1, 4]: 46.5% | inhibition in vivo at 3 mg/kg [1, 4]: 40% | inhibition in vivo at 0.03 mg/kg [1, 5]: 40% | inhibition in vivo at 3 mg/kg [1, 5]: 0%

COc1ccc(Cn2c(-c3ccccc3)nc(Cl)c2CC(=O)O)cc1C [drawing 137]
inhibition in vivo at 0.5 mg/kg [1, 3]: 33 ± 15% | inhibition in vivo at 0.5 mg/kg [1, 4]: 60 ± 18% | inhibition in vivo at 0.5 mg/kg [1, 5]: 62 ± 7%

CCCCc1nc(Cl)c(CC(=O)O)n1Cc1ccccc1Cl [n-C4 H9 / 2-Cl / H / H]
inhibition at 0.1 µM ([2]; 10^-7 M drug substance): 75% | inhibition in vivo at 0.1 mg/kg [1, 3]: 38% | inhibition in vivo at 0.1 mg/kg [1, 4]: 100% | inhibition in vivo at 0.1 mg/kg [1, 5]: 86%

CCCCc1nc(Cl)c(CC(=O)O)n1Cc1ccccc1 [n-C4 H9 / H / H / H, 1-Benzyl-2-n-butyl-4-chloroimidazole-5-acetic acid]
inhibition at 1 µM ([2]; 10^-6 M drug substance, read-out: Inhibition): 55% | inhibition in vivo at 0.1 mg/kg [1, 3]: 19.6 ± 1.5% | inhibition in vivo at 0.3 mg/kg [1, 3]: 25% | inhibition in vivo at 0.1 mg/kg [1, 4]: 64.3 ± 15.3% | inhibition in vivo at 0.3 mg/kg [1, 4]: 94% | inhibition in vivo at 0.1 mg/kg [1, 5]: 60 ± 21.5% | inhibition in vivo at 0.3 mg/kg [1, 5]: 94%

A II: angiotensin II (hereinafter referred to briefly as "A II") (DRVYIHPF; Angiotensin-2; UniProt P01019 25-32, looked up) [reference compound]
elevation of blood pressure after the infusion of A II, as compared with the one before the infusion ([1]; A II 20 ng/kg/min continuous intravenous infusion, 75 cases, no test drug): 45.5±2.1 mmHg
